# Measured values as given in publication PMC8286840, “Identifying SARS-CoV-2 antiviral compounds by screening for small molecule inhibitors of Nsp3 papain-like protease” (Biochemical Journal, 2021).
# Counter-ions that a name gives are not always drawn. Like-named read-outs stand apart in the source and are kept apart here.
# What was measured:
# [1] = biological target: T1, SARS-CoV-2 PLpro (nsp3 1564–1878) (Severe acute respiratory syndrome coronavirus 2, UniProt P0DTD1); assay: biochemical; design: FRET-quenched peptide (Pro3) cleavage by PLpro, 10 min pre-incubation, slope over 20 min, normalised to no-compound control; details: low concentration screen, read-out: % of control remaining
# [2] = biological target: T1, SARS-CoV-2 PLpro (nsp3 1564–1878); assay: biochemical; design: FRET-quenched peptide (Pro3) cleavage by PLpro, 10 min pre-incubation, slope over 20 min, normalised to no-compound control; details: high concentration screen, read-out: % of control remaining
smiles,measurement,setting,value
CC[C@H]1OC(=O)[C@H](C)[C@@H](O[C@H]2C[C@@](C)(OC)[C@@H](O)[C@H](C)O2)[C@H](C)[C@@H](O[C@@H]2O[C@H](C)C[C@H](N(C)C)[C@H]2O)[C@](C)(OC)C[C@@H](C)C(=O)[C@H](C)[C@@H](O)[C@]1(C)O [Clarithromycin],remaining activity at 1.25 µM,[1]; Well no.=2267,89%
same,remaining activity at 3.75 µM,[2]; Well no.=2267,89.2%
COc1cc(N)c(Cl)cc1C(=O)NC1CCN(Cc2ccccc2)CC1 [Clebopride (malate)],remaining activity at 1.25 µM,[1]; Well no.=7335,105%
same,remaining activity at 3.75 µM,[2]; Well no.=7335,102%
Clc1ccc(Cn2c(CN3CCCC3)nc3ccccc32)cc1 [Clemizole (hydrochloride)],remaining activity at 1.25 µM,[1]; Well no.=6558,93.9%
same,remaining activity at 3.75 µM,[2]; Well no.=6558,93.2%
Clc1ccc(Cn2c(CN3CCCC3)nc3ccccc32)cc1 [Clemizole hydrochloride],remaining activity at 1.25 µM,[1]; Well no.=226,98.5%
same,remaining activity at 3.75 µM,[2]; Well no.=226,98%
CC(C)(C)NCC(O)c1cc(Cl)c(N)c(Cl)c1 (stereo not drawn) [Clenbuterol (hydrochloride)],remaining activity at 1.25 µM,[1]; Well no.=7371,103%
same,remaining activity at 3.75 µM,[2]; Well no.=7371,104%
CC(C)(C)NCC(O)c1cc(Cl)c(N)c(Cl)c1 (stereo not drawn) [Clenbuterol],remaining activity at 1.25 µM,[1]; Well no.=1743,102%
same,remaining activity at 3.75 µM,[2]; Well no.=1743,102%
Cc1cn([C@H]2O[C@@H](CO)[C@H](O)[C@H]2F)c(=O)[nH]c1=O [Clevudine],remaining activity at 1.25 µM,[1]; Well no.=8012,98%
same,remaining activity at 1.25 µM,[1]; Well no.=8342,92.4%
same,remaining activity at 3.75 µM,[2]; Well no.=8012,100%
same,remaining activity at 3.75 µM,[2]; Well no.=8342,91.2%
CC(C)(C)C(=O)C(Oc1ccc(Cl)cc1)n1ccnc1 (stereo not drawn) [Climbazole],remaining activity at 1.25 µM,[1]; Well no.=2269,98.8%
same,remaining activity at 3.75 µM,[2]; Well no.=2269,99.5%
NC1CCN(c2c(F)cc3c(=O)c(C(=O)O)cn(C4CC4)c3c2Cl)C1 (stereo not drawn) [Clinafloxacin],remaining activity at 1.25 µM,[1]; Well no.=2271,93.2%
same,remaining activity at 3.75 µM,[2]; Well no.=2271,96.8%
CCCCCCCCCCCCCCCC(=O)O[C@@H]1[C@@H](O)[C@@H](O)[C@@H]([C@H](NC(=O)[C@@H]2C[C@@H](CCC)CN2C)[C@H](C)Cl)O[C@@H]1SC [Clindamycin palmitate.HCl],remaining activity at 1.25 µM,[1]; Well no.=1864,100%
same,remaining activity at 3.75 µM,[2]; Well no.=1864,102%
CCC[C@@H]1C[C@@H](C(=O)N[C@@H]([C@H]2O[C@H](SC)[C@H](OP(=O)(O)O)[C@@H](O)[C@H]2O)[C@H](C)Cl)N(C)C1 [Clindamycin phosphate],remaining activity at 1.25 µM,[1]; Well no.=5052,105%
same,remaining activity at 3.75 µM,[2]; Well no.=5052,104%
CCC(C)(Oc1ccc(C2(c3ccc(OC(C)(CC)C(=O)O)cc3)CCCCC2)cc1)C(=O)O (stereo not drawn) [Clinofibrate],remaining activity at 1.25 µM,[1]; Well no.=5332,96.6%
same,remaining activity at 3.75 µM,[2]; Well no.=5332,98.1%
CCC(=O)O[C@]1(C(=O)CCl)[C@@H](C)C[C@H]2[C@@H]3CCC4=CC(=O)C=C[C@]4(C)[C@@]3(F)[C@@H](O)C[C@@]21C [Clobetasol propionate],remaining activity at 1.25 µM,[1]; Well no.=1924,98.4%
same,remaining activity at 1.25 µM,[1]; Well no.=8301,95.3%
same,remaining activity at 3.75 µM,[2]; Well no.=1924,99.3%
same,remaining activity at 3.75 µM,[2]; Well no.=8301,89.7%
O=P(O)(O)C(Cl)(Cl)P(=O)(O)O [Clodronic acid],remaining activity at 1.25 µM,[1]; Well no.=737,95.6%
same,remaining activity at 1.25 µM,[1]; Well no.=1862,92.6%
same,remaining activity at 3.75 µM,[2]; Well no.=737,96.9%
same,remaining activity at 3.75 µM,[2]; Well no.=1862,90.7%
Nc1nc(Cl)nc2c1ncn2[C@@H]1O[C@H](CO)[C@@H](O)[C@@H]1F [Clofarabine],remaining activity at 1.25 µM,[1]; Well no.=1927,103%
same,remaining activity at 1.25 µM,[1]; Well no.=8004,98.8%
same,remaining activity at 3.75 µM,[2]; Well no.=1927,103%
same,remaining activity at 3.75 µM,[2]; Well no.=8004,97.4%
CC(C)/N=c1\cc2n(-c3ccc(Cl)cc3)c3ccccc3nc-2cc1Nc1ccc(Cl)cc1 [Clofazimine],remaining activity at 1.25 µM,[1]; Well no.=5649,101%
same,remaining activity at 3.75 µM,[2]; Well no.=5649,100%
CCOC(=O)C(C)(C)Oc1ccc(Cl)cc1 [Clofibrate],remaining activity at 1.25 µM,[1]; Well no.=326,94.4%
same,remaining activity at 1.25 µM,[1]; Well no.=1899,94.1%
same,remaining activity at 1.25 µM,[1]; Well no.=4468,93.7%
same,remaining activity at 3.75 µM,[2]; Well no.=326,94.8%
same,remaining activity at 3.75 µM,[2]; Well no.=1899,94%
same,remaining activity at 3.75 µM,[2]; Well no.=4468,99.4%
CC(C)(Oc1ccc(Cl)cc1)C(=O)O [Clofibric Acid],remaining activity at 1.25 µM,[1]; Well no.=8394,87%
same,remaining activity at 3.75 µM,[2]; Well no.=8394,81.1%
CCCCCCC[N+](CC)(CC)CCCCc1ccc(Cl)cc1 [Clofilium tosylate],remaining activity at 1.25 µM,[1]; Well no.=6882,91.1%
same,remaining activity at 3.75 µM,[2]; Well no.=6882,90.5%
CCN(CC)CCOc1ccc(C(=C(Cl)c2ccccc2)c2ccccc2)cc1 [Clomiphene],remaining activity at 1.25 µM,[1]; Well no.=2273,96.5%
same,remaining activity at 3.75 µM,[2]; Well no.=2273,96.3%
CN(C)CCCN1c2ccccc2CCc2ccc(Cl)cc21 [Clomipramine hydrochloride],remaining activity at 1.25 µM,[1]; Well no.=328,101%
same,remaining activity at 3.75 µM,[2]; Well no.=328,98.6%
Clc1cccc(Cl)c1NC1=NCCN1 [Clonidine (hydrochloride)],remaining activity at 1.25 µM,[1]; Well no.=6755,99.8%
same,remaining activity at 3.75 µM,[2]; Well no.=6755,98.3%
Clc1cccc(Cl)c1NC1=NCCN1 [Clonidine hydrochloride],remaining activity at 1.25 µM,[1]; Well no.=138,95.3%
same,remaining activity at 3.75 µM,[2]; Well no.=138,98.8%
Clc1cccc(Cl)c1NC1=NCCN1 [Clonidine.HCl],remaining activity at 1.25 µM,[1]; Well no.=1691,96%
same,remaining activity at 3.75 µM,[2]; Well no.=1691,94.2%
C[C@@H]1CCC[C@H](C)N1NC(=O)c1ccc(Cl)c(S(N)(=O)=O)c1 [Clopamide],remaining activity at 1.25 µM,[1]; Well no.=1773,96%
same,remaining activity at 3.75 µM,[2]; Well no.=1773,93.8%
COC(=O)[C@H](c1ccccc1Cl)N1CCc2sccc2C1 [Clopidogrel (hydrogen sulfate)],remaining activity at 1.25 µM,[1]; Well no.=7563,95.7%
same,remaining activity at 1.25 µM,[1]; Well no.=7926,95.8%
same,remaining activity at 3.75 µM,[2]; Well no.=7563,96.5%
same,remaining activity at 3.75 µM,[2]; Well no.=7926,98.2%
COC(=O)[C@H](c1ccccc1Cl)N1CCC2SC(=O)C=C2C1 (stereo partly drawn) [Clopidogrel thiolactone],remaining activity at 1.25 µM,[1]; Well no.=8562,95.8%
same,remaining activity at 3.75 µM,[2]; Well no.=8562,95.5%
COC(=O)[C@H](c1ccccc1Cl)N1CCc2sccc2C1 [Clopidogrel],remaining activity at 1.25 µM,[1]; Well no.=2277,90.2%
same,remaining activity at 3.75 µM,[2]; Well no.=2277,93%
C#CCN(C)CCCOc1ccc(Cl)cc1Cl [Clorgyline hydrochloride],remaining activity at 1.25 µM,[1]; Well no.=878,101%
same,remaining activity at 3.75 µM,[2]; Well no.=878,102%
Nc1cc(C(Cl)=C(Cl)Cl)c(S(N)(=O)=O)cc1S(N)(=O)=O [Clorsulon],remaining activity at 1.25 µM,[1]; Well no.=5298,87.3%
same,remaining activity at 1.25 µM,[1]; Well no.=7310,99.9%
same,remaining activity at 3.75 µM,[2]; Well no.=5298,87.7%
same,remaining activity at 3.75 µM,[2]; Well no.=7310,97.7%
CN1CCN(C2=Nc3ccccc3Sc3ccc(Cl)cc32)CC1 [Clothiapine],remaining activity at 1.25 µM,[1]; Well no.=1815,102%
same,remaining activity at 3.75 µM,[2]; Well no.=1815,99.6%
